Experiment: Bidirectional Caco-2 permeability assay
Assay type: in vitro ADME
Settings: human, Caco-2
Protocol: The bidirectional permeability of compounds across the Caco-2 cell monolayer was assessed. The Caco-2 model is a widely used in vitro model for small intestinal absorption and potential for efflux. Cell culture. Caco-2 cells were grown in DMEM supplemented with 10% fetal bovine serum (FBS), 1% Penicillin-Streptomycin and 1% MEMNEAA. The cells were incubated at 37° C., 5% CO2/95% air and saturated humidity. After reaching 80-90% confluency, the cells were gently detached with trypsin. Cells at passage 39 were seeded on the 24-well BD insert system at the density of 8×10^4 cells/cm^2 and cultured for 19 days with medium changed every 2-3 days. Measure the transepithelial electrical resistance (TEER) value of each well. The wells can be used only when their TEER values are greater than 600 Ohms/cm^2.
Transport assay. After removing the cell culture medium from the 24-well insert plate, the cells were rinsed with warm transport buffer. Appropriate dosing and receiving solutions were applied to the donor and receiver chambers to initiate the transport assay in apical to basolateral (A to B) or basolateral to apical (B to A) directions (500 and 1300 μL for apical and basolateral wells, respectively). Duplicate wells in each direction were used for the test compound and control compound. The plate was incubated in CO2 incubator at 37° C., with 5% CO2/95% air and saturated humidity without shaking. The sample after 10-minute incubation was used as the To sample, and the sample after 90-minute incubation was used as the T90 sample. To and T90 samples were collected from the donor and receiver side of each well at the designed timepoint, mixed with the transport buffer and acetonitrile/MeOH (1:1, v/v) and the internal standard for LC/MS/MS analysis. All samples were vortexed and centrifuged at 4000 rpm at 4° C. for 15 minutes, diluted with pure water and stored at 4° C. before bioanalysis by LC/MS/MS.
Sample analysis. The concentrations of test compounds and control compounds in Caco-2 cells were quantitatively determined by LC/MS/MS method after protein precipitation.
Calculations. The apparent permeability (Papp, cm/s), efflux ratio (ER) and recovery parameters were calculated for Caco-2 drug transport assay using the following equations: […]
where VR is the solution volume in the receiver chamber (0.4 mL on the apical side, 1.2 mL on the basolateral side); Area is the surface area for the insert membrane, i.e., 0.3 cm^2 for the area of the monolayer; Time is incubation time, expressed in seconds, i. e., 5400 s (90 min) for the current experiment; Co is the initial concentration of test compound or peak area ratio of control compounds in the donor chamber (M); VD is the volume in the donor chambers (0.4 mL on the apical side, 1.2 mL on the basolateral side); CD and CR are the final concentrations of test compounds or peak area ratio of control compounds in donor and receiver chambers, respectively.
Compounds with Papp<1.0 are classified as low permeability, Papp between 1-10 are classified as medium permeability, and Papp>10 are classified as high permeability. An efflux ratio (ER)>2 indicates the compounds are potential substrates for intestinal cell efflux transporters.

Row | Compound | Papp A→B at 90 min [×10⁻⁶ cm/s] | Papp B→A at 90 min [×10⁻⁶ cm/s] | efflux ratio at 90 min
1 | CCCCC(=O)Nc1ncnn2c([C@]3(C#N)O[C@H](COC(=O)CC4CCCCCC4)[C@@H](OC(=O)[C@@H](N)C(C)(C)C)[C@H]3O)ccc12 [Compound 61, (2R,3S,4R,5R)-5-cyano-2-((2-cycloheptylacetoxy)methyl)-4-hydroxy-5-(4-pentanamidopyrrolo[2,1-f][1,2,4]triazin-7-yl)tetrahydrofuran-3-yl (S)-2-amino-3,3-dimethylbutanoate] | 1.07 | 0.65 | 0.6
2 | CCC(CC)C(=O)Nc1ncnn2c([C@]3(C#N)O[C@H](COC(=O)CC4CCCCCC4)[C@@H](OC(=O)[C@@H](N)C(C)(C)C)[C@H]3O)ccc12 [Compound 62, (2R,3S,4R,5R)-5-cyano-2-((2-cycloheptylacetoxy)methyl)-5-(4-(2-ethylbutanamido)pyrrolo[2,1-f][1,2,4]triazin-7-yl)-4-hydroxytetrahydrofuran-3-yl (S)-2-amino-3,3-dimethylbutanoate] | 1.4 | 0.89 | 0.64
3 | COC(C)(C)C(=O)Nc1ncnn2c([C@]3(C#N)O[C@H](COC(=O)CC4CCCCCC4)[C@@H](OC(=O)[C@@H](N)C(C)(C)C)[C@H]3O)ccc12 [Compound 63, (2R,3S,4R,5R)-5-cyano-2-((2-cycloheptylacetoxy)methyl)-4-hydroxy-5-(4-(2-methoxy-2-methylpropanamido)pyrrolo[2,1-f][1,2,4]triazin-7-yl)tetrahydrofuran-3-yl (S)-2-amino-3,3-dimethylbutanoate] | 4.01 | 2.79 | 0.7
4 | CCCCOC(=O)Nc1ncnn2c([C@]3(C#N)O[C@H](COC(=O)CC4CCCCCC4)[C@@H](OC(=O)[C@@H](N)C(C)(C)C)[C@H]3O)ccc12 [Compound 65, (2R,3S,4R,5R)-5-(4-((butoxycarbonyl)amino)pyrrolo[2,1-f][1,2,4]triazin-7-yl)-5-cyano-2-((2-cycloheptylacetoxy)methyl)-4-hydroxytetrahydrofuran-3-yl (S)-2-amino-3,3-dimethylbutanoate] | 0.79 | 0.5 | 0.62
5 | CCOC(C)(C)C(=O)Nc1ncnn2c([C@]3(C#N)O[C@H](COC(=O)CC4CCCC4)[C@@H](OC(=O)[C@@H](N)C(C)(C)C)[C@H]3O)ccc12 [Compound 66, (2R,3S,4R,5R)-5-cyano-2-((2-cyclopentylacetoxy)methyl)-5-(4-(2-ethoxy-2-methylpropanamido)pyrrolo[2,1-f][1,2,4]triazin-7-yl)-4-hydroxytetrahydrofuran-3-yl (S)-2-amino-3,3-dimethylbutanoate] | 5.1 | 5.79 | 1.13
6 | CCOC(C)(C)C(=O)Nc1ncnn2c([C@]3(C#N)O[C@H](COC(=O)CC4CCCCCC4)[C@@H](OC(=O)[C@@H](N)C(C)(C)C)[C@H]3O)ccc12 [Compound 67, (2R,3S,4R,5R)-5-cyano-2-((2-cycloheptylacetoxy)methyl)-5-(4-(2-ethoxy-2-methylpropanamido)pyrrolo[2,1-f][1,2,4]triazin-7-yl)-4-hydroxytetrahydrofuran-3-yl (S)-2-amino-3,3-dimethylbutanoate] | 4.78 | 2.54 | 0.53
7 | COC(C)(C)C(=O)Nc1ncnn2c([C@]3(C#N)O[C@H](COC(=O)CC4CCCCC4)[C@@H](OC(=O)[C@H](N)C(C)(C)C)[C@H]3O)ccc12 [Compound 68, (2R,3S,4R,5R)-5-cyano-2-((2-cyclohexylacetoxy)methyl)-4-hydroxy-5-(4-(2-methoxy-2-methylpropanamido)pyrrolo[2,1-f][1,2,4]triazin-7-yl)tetrahydrofuran-3-yl (R)-2-amino-3,3-dimethylbutanoate] | 3.22 | 4.04 | 1.25
8 | CCC(CC)C(=O)Nc1ncnn2c([C@]3(C#N)O[C@H](COC(=O)CC4CCCCC4)[C@@H](OC(=O)[C@H](N)C(C)(C)C)[C@H]3O)ccc12 [Compound 69, (2R,3S,4R,5R)-5-cyano-2-((2-cyclohexylacetoxy)methyl)-5-(4-(2-ethylbutanamido)pyrrolo[2,1-f][1,2,4]triazin-7-yl)-4-hydroxytetrahydrofuran-3-yl (R)-2-amino-3,3-dimethylbutanoate] | 3.19 | 4.38 | 1.37
9 | COC(C)(C)C(=O)Nc1ncnn2c([C@]3(C#N)O[C@H](COC(=O)CC4CCCCCC4)[C@@H](OC(=O)[C@H](N)C(C)(C)C)[C@H]3O)ccc12 [Compound 70, (2R,3S,4R,5R)-5-cyano-2-((2-cycloheptylacetoxy)methyl)-4-hydroxy-5-(4-(2-methoxy-2-methylpropanamido)pyrrolo[2,1-f][1,2,4]triazin-7-yl)tetrahydrofuran-3-yl (R)-2-amino-3,3-dimethylbutanoate] | 2.13 | 2.2 | 1.03
10 | CCCCOC(C)(C)C(=O)Nc1ncnn2c([C@]3(C#N)O[C@H](COC(=O)CC4CCCC4)[C@@H](OC(=O)[C@@H](N)C(C)(C)C)[C@H]3O)ccc12 [Compound 71, (2R,3S,4R,5R)-5-(4-(2-butoxy-2-methylpropanamido)pyrrolo[2,1-f][1,2,4]triazin-7-yl)-5-cyano-2-((2-cyclopentylacetoxy)methyl)-4-hydroxytetrahydrofuran-3-yl(S)-2-amino-3,3-dimethylbutanoate] | 0.67 | 8.18 | 12.1
11 | CCCCOC(C)(C)C(=O)Nc1ncnn2c([C@]3(C#N)O[C@H](COC(=O)CC4CCCCCC4)[C@@H](OC(=O)[C@@H](N)C(C)(C)C)[C@H]3O)ccc12 [Compound 72, (2R,3S,4R,5R)-5-(4-(2-butoxy-2-methylpropanamido)pyrrolo[2,1-f][1,2,4]triazin-7-yl)-5-cyano-2-((2-cycloheptylacetoxy)methyl)-4-hydroxytetrahydrofuran-3-yl(S)-2-amino-3,3-dimethylbutanoate] | 0.09 | 7.6 | 88.8
12 | CCCCOC(C)(C)C(=O)Nc1ncnn2c([C@]3(C#N)O[C@H](COC(=O)CC4CCCCC4)[C@@H](OC(=O)[C@H](N)C(C)(C)C)[C@H]3O)ccc12 [Compound 73, (2R,3S,4R,5R)-5-(4-(2-butoxy-2-methylpropanamido)pyrrolo[2,1-f][1,2,4]triazin-7-yl)-5-cyano-2-((2-cyclohexylacetoxy)methyl)-4-hydroxytetrahydrofuran-3-yl (R)-2-amino-3,3-dimethylbutanoate] | 0.24 | 0.53 | 2.23
13 | CCCCOC(C)(C)C(=O)Nc1ncnn2c([C@]3(C#N)O[C@H](COC(=O)CC4CCCCC4)[C@@H](OC(=O)[C@@H](N)C(C)(C)C)[C@H]3O)ccc12 [Compound 74, (2R,3S,4R,5R)-5-(4-(2-butoxy-2-methylpropanamido)pyrrolo[2,1-f][1,2,4]triazin-7-yl)-5-cyano-2-((2-cyclohexylacetoxy)methyl)-4-hydroxytetrahydrofuran-3-yl (S)-2-amino-3,3-dimethylbutanoate] | 0.41 | 0.41 | 1
14 | CCCCOC(C)(C)C(=O)Nc1ncnn2c([C@]3(C#N)O[C@H](COC(=O)CC4CCCCCC4)[C@@H](OC(=O)[C@H](N)C(C)(C)C)[C@H]3O)ccc12 [Compound 75, (2R,3S,4R,5R)-5-(4-(2-butoxy-2-methylpropanamido)pyrrolo[2,1-f][1,2,4]triazin-7-yl)-5-cyano-2-((2-cycloheptylacetoxy)methyl)-4-hydroxytetrahydrofuran-3-yl(R)-2-amino-3,3-dimethylbutanoate] | 0.22 | 0.12 | 0.52
15 | CCC(CC)C(=O)Nc1ncnn2c([C@]3(C#N)O[C@H](COC(=O)CC4CCCC4)[C@@H](OC(=O)[C@H](N)C(C)(C)C)[C@H]3O)ccc12 [Compound 76, (2R,3S,4R,5R)-5-cyano-2-((2-cyclopentylacetoxy)methyl)-5-(4-(2-ethylbutanamido)pyrrolo[2,1-f][1,2,4]triazin-7-yl)-4-hydroxytetrahydrofuran-3-yl (R)-2-amino-3,3-dimethylbutanoate] | 2.5 | 2.4 | 1

— patent US20250228882A1, “ORALLY-BIOAVAILABLE NUCLEOSIDE ANALOGS” (Venatorx Pharmaceuticals, Inc., priority 2022, published 2025)
